We go through 13 molecules from US12534469B2 (CHILDREN'S HOSPITAL MEDICAL CENTER, priority 2020, dated 2026).

In general, IC50 refers to the midpoint of a concentration-inhibition curve.

Read-outs that look alike come from different tables or passages of the source.

The subject of one assay is THP-1-Blue NF-κB cells. The assay is described as follows: NF-kB SEAP reporter assay in THP-1-Blue NF-κB cells. Type of assay: cell-based. To be noted: 24 hours. The method, then:
THP-1-Blue NF-κB cells (InvivoGen) carrying a stable integrated NF-κB-inducible secreted embryonic alkaline phosphatase (SEAP) reporter construct were plated at a concentration of 1×10^5 cells per well. The cells were stimulated with Pam3CSK4 (1 ng/mL) or hIL1B (1 ng/mL). After 10-20 minutes, the cells were then treated with vehicle (DMSO) or serial dilutions of the test compounds (10 doses tested for each test compound, with a 1:10 dilution series starting at 1 μM or 3 μM) with a final volume of 200 μL for 24 hours at 37° C. After 24 hours, the cells were centrifuged and 20 μL supernatant was incubated with 180 μL QUANTI-Blue reagent at 37° C. for 30-60 minutes. The levels of NF-κB-induced gene expression were measured in a microplate reader at 620 nm.
(In general: A reporter such as luciferase makes a cellular process visible.)

The next assay deals with T1, IRAK1 (Homo sapiens, UniProt P51617).
T1 construct: purchased Reaction Biology (RBC HotSpot Kinase Assay)
The assay is described as follows: RBC HotSpot Kinase Assay, IRAK1. Type of assay: biochemical. An outline of the steps:
(§1)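 Radiometric filter-binding (HotSpot) activity assay on isolated recombinant kinase, possibly truncated or catalytic domain only, in 20 mM Hepes pH 7.5, 10 mM MgCl2, 1 mM EGTA, 2 mM DTT, 1% DMSO. Compound preincubated 20 min with kinase and substrate, then ^33P-ATP added. Reaction 2 h at room temperature, read by P81 filter binding.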

The subject of a further assay is MOLM14 F691L cells. The assay is described as follows: MOLM14 F691L cell viability assay (Cell Titer Glo). Type of assay: cell-based. The method, then: (§2) Both cell lines have activated FLT3 receptors, each of which carry additional resistance mutations in the kinase domain (D835Y and F691L, respectively).
(§3) MOLM14 D835Y and MOLM14 F691L cells were grown in RPMI-1640 media supplemented with 20% fetal bovine serum (FBS). For viability/cytotoxicity assessments, cells were seeded into 1536-well white polystyrene tissue culture-treated Greiner plates using a Multidrop Combi dispenser (ThermoFisher), in final volume 5 μL of growth media per well, at a density of 1000 cells per well. After cell addition, 23 nL of test compound were transferred into individual wells (22 doses tested for each test compound, with a 1:2 dilution series starting at 10 μM) via a 1536 pin-tool. Bortezomib (final concentration 2.3 μM) was used as a positive control for cell cytotoxicity. Plates were incubated for 48 hours at standard incubator conditions covered by a stainless steel gasketed lid to prevent evaporation. 48 hours post compound addition, 3 μL of Cell Titer Glo (Promega) were added to each well and plates were incubated at room temperature for 15 minutes with the stainless-steel lid in place. Luminescence readings were taken using a Viewlux imager (PerkinElmer) with a 2 second exposure time per plate.
For orientation: ATP-based viability assays read luminescence as a measure of living cells.

The subject of a further assay is MOLM14 D835Y cells. The assay is described as follows: MOLM14 D835Y cell viability assay (Cell Titer Glo). Type of assay: cell-based. The method, then: as §2, §3
For a further assay, the target named is T2, IRAK4 (Homo sapiens, UniProt Q9NWZ3).
T2 sequence (Q9NWZ3 1-460): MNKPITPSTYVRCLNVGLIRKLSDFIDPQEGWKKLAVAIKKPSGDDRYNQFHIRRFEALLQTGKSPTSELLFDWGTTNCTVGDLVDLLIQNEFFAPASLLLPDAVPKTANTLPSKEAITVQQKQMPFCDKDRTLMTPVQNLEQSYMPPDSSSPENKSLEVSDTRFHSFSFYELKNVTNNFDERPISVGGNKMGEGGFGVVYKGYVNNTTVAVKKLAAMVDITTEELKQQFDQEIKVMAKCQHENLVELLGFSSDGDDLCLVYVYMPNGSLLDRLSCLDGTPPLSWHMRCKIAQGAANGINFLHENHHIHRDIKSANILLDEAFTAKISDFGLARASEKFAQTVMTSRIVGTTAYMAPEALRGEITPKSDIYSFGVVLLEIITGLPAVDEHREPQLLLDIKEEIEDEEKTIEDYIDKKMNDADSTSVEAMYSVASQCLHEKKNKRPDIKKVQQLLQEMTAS
The assay is described as follows: RBC HotSpot Kinase Assay, IRAK4. Type of assay: biochemical. Also noted: purchased Reaction Biology (RBC HotSpot Kinase Assay). An outline of the steps: as §1

Where [1] appears, read: stimulated with Pam3CSK4 (1 ng/mL), read-out: NF-κB Pam3SCK4 IC50.
The mark [2] stands for this setting: stimulated with hIL1B (1 ng/mL), read-out: NF-κB IL1B IC50.

T1 sequence (P51617 whole entry): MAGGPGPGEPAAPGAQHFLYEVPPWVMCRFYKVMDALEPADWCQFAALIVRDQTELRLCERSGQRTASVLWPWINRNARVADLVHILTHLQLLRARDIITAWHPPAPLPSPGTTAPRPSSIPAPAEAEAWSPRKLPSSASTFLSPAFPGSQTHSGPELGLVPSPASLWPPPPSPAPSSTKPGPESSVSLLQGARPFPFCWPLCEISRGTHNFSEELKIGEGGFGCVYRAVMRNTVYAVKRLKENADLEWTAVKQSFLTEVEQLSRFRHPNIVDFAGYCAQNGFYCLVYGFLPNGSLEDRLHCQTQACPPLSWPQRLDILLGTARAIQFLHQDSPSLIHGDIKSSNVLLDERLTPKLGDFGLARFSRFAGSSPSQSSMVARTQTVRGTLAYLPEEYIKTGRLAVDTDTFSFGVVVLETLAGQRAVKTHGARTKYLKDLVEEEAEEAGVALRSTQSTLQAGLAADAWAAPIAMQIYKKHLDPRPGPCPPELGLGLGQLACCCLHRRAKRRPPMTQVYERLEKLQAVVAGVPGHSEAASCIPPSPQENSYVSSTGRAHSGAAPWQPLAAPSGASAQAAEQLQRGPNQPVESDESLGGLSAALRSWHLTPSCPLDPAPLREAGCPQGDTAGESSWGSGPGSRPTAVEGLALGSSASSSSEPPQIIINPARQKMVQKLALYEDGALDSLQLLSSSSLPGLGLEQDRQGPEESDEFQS

Turning to `COc1cc2ncc(-c3cccc(N[C@H]4CNC[C@@H]4C(F)(F)F)n3)n2nc1C1CC1` [Compound 99, 6-(6-cyclopropyl-7-methoxyimidazo[1,2-b]pyridazin-3-yl)-N-((3R,4S)-4-(trifluoromethyl)pyrrolidin-3-yl)pyridin-2-amine], the IC50 amounted to 121 nM in the assay with THP-1-Blue NF-κB cells (setting [1]); 340 nM with THP-1-Blue NF-κB cells (setting [2]); 821 nM at IRAK1; 269 nM in the assay with MOLM14 F691L cells (Homo sapiens, MOLM-14, 48 h); 17 nM in the assay on MOLM14 D835Y cells (Homo sapiens, MOLM-14, 48 h); 0.5 nM at IRAK4.
Take `COc1cc2ncc(-c3nc(N[C@@H]4CCCNC4)c(F)cc3F)n2nc1C1CC1` [Compound 106, (R)-6-(6-cyclopropyl-7-methoxyimidazo[1,2-b]pyridazin-3-yl)-3,5-difluoro-N-(piperidin-3-yl)pyridin-2-amine]: the IC50 in the assay on THP-1-Blue NF-κB cells (setting [1]) came to 63 nM; in the assay on THP-1-Blue NF-κB cells (setting [2]) it was 59 nM; at IRAK1 it was 15 nM; with MOLM14 F691L cells (Homo sapiens, MOLM-14, 48 h), 29 nM; with MOLM14 D835Y cells (Homo sapiens, MOLM-14, 48 h) it was 3 nM; on IRAK4, 0.8 nM.
Turning to `COc1cc2ncc(-c3nc(N[C@H]4CNC[C@@H]4F)c(F)cc3F)n2nc1C1CC1` [Compound 107, 6-(6-cyclopropyl-7-methoxyimidazo[1,2-b]pyridazin-3-yl)-3,5-difluoro-N-((3S,4S)-4-fluoropyrrolidin-3-yl)pyridin-2-amine], the IC50 was 18 nM with THP-1-Blue NF-κB cells (setting [1]); 15 nM in the assay on THP-1-Blue NF-κB cells (setting [2]); 3 nM on IRAK1; 137 nM in the assay with MOLM14 F691L cells (Homo sapiens, MOLM-14, 48 h); 11 nM in the assay with MOLM14 D835Y cells (Homo sapiens, MOLM-14, 48 h); < 0.5 nM on IRAK4.
For the molecule `F[C@H]1CNC[C@@H]1Nc1cccc(-c2cnc3ccc(-c4cnn5ccccc45)nn23)n1` [Compound 9, N-((3S,4S)-4-fluoropyrrolidin-3-yl)-6-(6-(pyrazolo[1,5-a]pyridin-3-yl)imidazo[1,2-b]pyridazin-3-yl)pyridin-2-amine], the IC50 against IRAK1 was determined as 81 nM; in the assay with MOLM14 D835Y cells (Homo sapiens, MOLM-14, 48 h) it was 101 nM; against IRAK4, 7 nM.
The matching figures for `c1cc(N[C@@H]2CCCNC2)nc(-c2cnc3ccc(-c4cnn5ccccc45)nn23)c1` [Compound 19, (R)-N-(piperidin-3-yl)-6-(6-(pyrazolo[1,5-a]pyridin-3-yl)imidazo[1,2-b]pyridazin-3-yl)pyridin-2-amine]: 194 nM, 402 nM and 3 nM.
As to `COc1cc2ncc(-c3cccc(N[C@H]4CNC[C@@H]4F)n3)n2nc1C(C)(O)C(F)(F)F` (single isomer, unassigned; fast-eluting) [Compound 133], the IC50 on IRAK1 is 3320 nM; in the assay on MOLM14 F691L cells (48 hours) it was 969 nM; in the assay on MOLM14 D835Y cells (48 hours), 86 nM; against IRAK4 it was < 0.5 nM.
With `COc1cc2ncc(-c3cccc(N[C@@H]4CCNC4)n3)n2nc1C1CC1` [Compound 97, (R)-6-(6-cyclopropyl-7-methoxyimidazo[1,2-b]pyridazin-3-yl)-N-(pyrrolidin-3-yl)pyridin-2-amine], the IC50 was 253 nM on IRAK1; 34 nM in the assay on MOLM14 D835Y cells (Homo sapiens, MOLM-14, 48 h); 2 nM on IRAK4.
Consider `COc1cc2ncc(-c3nc(N[C@H]4CNCC[C@@H]4F)c(F)cc3F)n2nc1C(C)(C)O` [Compound 128, 2-(3-(3,5-difluoro-6-(((3S,4S)-4-fluoropiperidin-3-yl)amino)pyridin-2-yl)-7-methoxyimidazo[1,2-b]pyridazin-6-yl)propan-2-ol], for which the IC50 is 108 nM in the assay with THP-1-Blue NF-κB cells (setting [1]); 196 nM with THP-1-Blue NF-κB cells (setting [2]); 129 nM against IRAK1; 386 nM with MOLM14 F691L cells (Homo sapiens, MOLM-14, 48 h); 34 nM with MOLM14 D835Y cells (Homo sapiens, MOLM-14, 48 h); 6 nM against IRAK4.
Consider `COc1cc2ncc(-c3cccc(N[C@H]4CNCC[C@@H]4F)n3)n2nc1C1CC1` [Compound 102, 6-(6-cyclopropyl-7-methoxyimidazo[1,2-b]pyridazin-3-yl)-N-((3S,4S)-4-fluoropiperidin-3-yl)pyridin-2-amine], for which the IC50 in the assay with THP-1-Blue NF-κB cells (setting [1]) was 135 nM; with THP-1-Blue NF-κB cells (setting [2]) it was 254 nM; against IRAK1, 109 nM; in the assay on MOLM14 F691L cells (Homo sapiens, MOLM-14, 48 h), 388 nM; in the assay on MOLM14 D835Y cells (Homo sapiens, MOLM-14, 48 h), 34 nM; at IRAK4, 1 nM.
For the molecule `COc1cc2ncc(-c3nc(N[C@H]4CNC[C@@H]4F)c(F)cc3F)n2nc1C(C)(C)O` [Compound 126, 2-(3-(3,5-difluoro-6-(((3S,4S)-4-fluoropyrrolidin-3-yl)amino)pyridin-2-yl)-7-methoxyimidazo[1,2-b]pyridazin-6-yl)propan-2-ol], the IC50 in the assay with THP-1-Blue NF-κB cells (setting [1]) is 92 nM; with THP-1-Blue NF-κB cells (setting [2]), 121 nM; on IRAK1 it was 135 nM; with MOLM14 F691L cells (Homo sapiens, MOLM-14, 48 h), 1540 nM; in the assay with MOLM14 D835Y cells (Homo sapiens, MOLM-14, 48 h) it was 109 nM; on IRAK4, 4 nM.
For `COc1cc2ncc(-c3cccc(N[C@H]4CNC[C@@H]4F)n3)n2nc1C1CC1` [Compound 96, 6-(6-cyclopropyl-7-methoxyimidazo[1,2-b]pyridazin-3-yl)-N-((3S,4S)-4-fluoropyrrolidin-3-yl)pyridin-2-amine], the IC50 was found to be 93 nM with THP-1-Blue NF-κB cells (setting [1]); 121 nM in the assay on THP-1-Blue NF-κB cells (setting [2]); 153 nM against IRAK1; 673 nM in the assay with MOLM14 F691L cells (Homo sapiens, MOLM-14, 48 h); 55 nM with MOLM14 D835Y cells (Homo sapiens, MOLM-14, 48 h); 3 nM against IRAK4.
Regarding `COc1cc2ncc(-c3nc(N[C@H]4CNCC[C@@H]4F)c(F)cc3F)n2nc1C1CC1` [Compound 108, 6-(6-cyclopropyl-7-methoxyimidazo[1,2-b]pyridazin-3-yl)-3,5-difluoro-N-((3S,4S)-4-fluoropiperidin-3-yl)pyridin-2-amine], the IC50 worked out at 30 nM with THP-1-Blue NF-κB cells (setting [1]); 13 nM in the assay on THP-1-Blue NF-κB cells (setting [2]); 5 nM against IRAK1; 29 nM in the assay on MOLM14 F691L cells (Homo sapiens, MOLM-14, 48 h); 3 nM with MOLM14 D835Y cells (Homo sapiens, MOLM-14, 48 h); 0.6 nM at IRAK4.
Consider `COc1cc2ncc(-c3nc(N[C@@H]4CCCNC4)c(F)cc3F)n2nc1C(C)(C)O` [Compound 127, (R)-2-(3-(3,5-difluoro-6-(piperidin-3-ylamino)pyridin-2-yl)-7-methoxyimidazo[1,2-b]pyridazin-6-yl)propan-2-ol], for which the IC50 turned out to be 254 nM with THP-1-Blue NF-κB cells (setting [1]); 359 nM in the assay on THP-1-Blue NF-κB cells (setting [2]); 146 nM at IRAK1; 6120 nM with MOLM14 F691L cells (Homo sapiens, MOLM-14, 48 h); 1220 nM in the assay on MOLM14 D835Y cells (Homo sapiens, MOLM-14, 48 h); 16 nM against IRAK4.
